Test [1] deals with T1, HiBiT-BRM fusion protein in stable HeLa cell line (Homo sapiens, UniProt P51531).
T1 construct: expressed in transfected cells
The experiment in a line: HiBiT-BRM cell-based degradation assay (Nano-Glo HiBiT Lytic Detection, 24 h). Set-up: DC50: scale not given here. Conditions: HeLa HiBiT-BRM cells; for DC50: read-out: BRM HiBit Degradation IC50; for BRM HiBit Degradation Maximum (%): top dose 30 μM. Put shortly: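 Percent degradation was scaled between DMSO-treated cells and cells given 2 μM of a known BRM/BRG1 degrader. Readout was NanoBiT luminescence after lytic detection. HeLa cells stably expressing HiBiT-BRM were dosed for 24 h, 10 points, 3-fold steps from 30 μM final, in duplicate.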
(In general: HiBiT is a short tag that completes a luciferase, so light tracks the accessible tagged protein.)

The target of test [2] is T2, HiBit-BRG1 fusion protein in stable HeLa cell line expressing HiBit-BRG1 and LgBit (Homo sapiens, UniProt P51532).
T2 construct: expressed in transfected cells
As to the kind of experiment: HiBiT-BRG1 cell-based degradation assay (Nano-Glo HiBiT, 24 h). Conditions: HeLa HiBit-BRG1/LgBit cells; for DC50: read-out: BRMG1 HiBit Degradation IC50; for Dmax: top dose 30 μM, read-out: BRG1 HiBit Degradation Maximum (%). Put shortly: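 Degradation calculated from NanoBiT luminescence relative to DMSO-treated cells (high) and cells given 2 μM known BRM/BRG1 degrader (low). HeLa cells stably expressing HiBiT-BRG1 plus LgBiT were exposed to compound for 24 h before lytic HiBiT detection.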

Some results are limits rather than exact numbers.

T1 sequence (P51531 whole entry, the tested form may be a part): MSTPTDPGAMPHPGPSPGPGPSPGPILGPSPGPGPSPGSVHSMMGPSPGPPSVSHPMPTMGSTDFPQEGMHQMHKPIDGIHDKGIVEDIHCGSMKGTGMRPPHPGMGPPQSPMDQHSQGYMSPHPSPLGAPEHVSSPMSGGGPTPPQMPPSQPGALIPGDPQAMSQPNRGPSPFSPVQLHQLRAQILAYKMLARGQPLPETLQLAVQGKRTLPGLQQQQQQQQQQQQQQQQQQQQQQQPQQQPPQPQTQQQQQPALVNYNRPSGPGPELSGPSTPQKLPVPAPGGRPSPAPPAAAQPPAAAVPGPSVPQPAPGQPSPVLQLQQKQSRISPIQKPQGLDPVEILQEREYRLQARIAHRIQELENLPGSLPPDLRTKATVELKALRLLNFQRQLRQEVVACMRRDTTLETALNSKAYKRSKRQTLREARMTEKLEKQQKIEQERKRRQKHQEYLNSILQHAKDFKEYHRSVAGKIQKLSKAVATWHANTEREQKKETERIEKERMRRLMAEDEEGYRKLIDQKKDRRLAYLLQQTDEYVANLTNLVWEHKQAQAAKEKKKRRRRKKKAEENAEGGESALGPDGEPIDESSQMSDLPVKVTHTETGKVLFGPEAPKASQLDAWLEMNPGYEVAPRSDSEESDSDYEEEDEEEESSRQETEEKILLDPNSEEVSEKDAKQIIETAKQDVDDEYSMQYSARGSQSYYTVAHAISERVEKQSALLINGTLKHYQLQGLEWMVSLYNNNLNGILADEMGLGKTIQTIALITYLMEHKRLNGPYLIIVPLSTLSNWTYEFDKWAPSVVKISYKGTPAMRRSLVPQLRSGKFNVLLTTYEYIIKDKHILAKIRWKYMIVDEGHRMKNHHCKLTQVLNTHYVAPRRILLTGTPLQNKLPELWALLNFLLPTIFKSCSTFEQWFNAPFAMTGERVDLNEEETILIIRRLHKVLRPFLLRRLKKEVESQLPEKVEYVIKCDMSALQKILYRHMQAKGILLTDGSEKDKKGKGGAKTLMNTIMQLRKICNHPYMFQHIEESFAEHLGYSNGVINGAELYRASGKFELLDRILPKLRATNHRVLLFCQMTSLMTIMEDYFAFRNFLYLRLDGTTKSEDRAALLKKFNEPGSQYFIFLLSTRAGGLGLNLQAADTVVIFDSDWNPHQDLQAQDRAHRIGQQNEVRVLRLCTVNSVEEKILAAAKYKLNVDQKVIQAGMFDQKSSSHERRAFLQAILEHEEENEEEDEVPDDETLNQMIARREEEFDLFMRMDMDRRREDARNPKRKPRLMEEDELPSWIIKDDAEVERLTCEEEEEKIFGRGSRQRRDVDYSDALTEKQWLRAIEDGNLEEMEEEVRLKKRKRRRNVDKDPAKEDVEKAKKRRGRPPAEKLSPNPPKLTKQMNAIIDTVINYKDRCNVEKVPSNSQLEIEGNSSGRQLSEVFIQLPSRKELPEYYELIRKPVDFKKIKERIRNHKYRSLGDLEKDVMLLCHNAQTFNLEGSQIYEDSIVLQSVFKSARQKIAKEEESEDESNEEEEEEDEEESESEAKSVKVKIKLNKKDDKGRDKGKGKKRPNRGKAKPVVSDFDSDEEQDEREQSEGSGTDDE
T2 sequence (P51532 whole entry, the tested form may be a part): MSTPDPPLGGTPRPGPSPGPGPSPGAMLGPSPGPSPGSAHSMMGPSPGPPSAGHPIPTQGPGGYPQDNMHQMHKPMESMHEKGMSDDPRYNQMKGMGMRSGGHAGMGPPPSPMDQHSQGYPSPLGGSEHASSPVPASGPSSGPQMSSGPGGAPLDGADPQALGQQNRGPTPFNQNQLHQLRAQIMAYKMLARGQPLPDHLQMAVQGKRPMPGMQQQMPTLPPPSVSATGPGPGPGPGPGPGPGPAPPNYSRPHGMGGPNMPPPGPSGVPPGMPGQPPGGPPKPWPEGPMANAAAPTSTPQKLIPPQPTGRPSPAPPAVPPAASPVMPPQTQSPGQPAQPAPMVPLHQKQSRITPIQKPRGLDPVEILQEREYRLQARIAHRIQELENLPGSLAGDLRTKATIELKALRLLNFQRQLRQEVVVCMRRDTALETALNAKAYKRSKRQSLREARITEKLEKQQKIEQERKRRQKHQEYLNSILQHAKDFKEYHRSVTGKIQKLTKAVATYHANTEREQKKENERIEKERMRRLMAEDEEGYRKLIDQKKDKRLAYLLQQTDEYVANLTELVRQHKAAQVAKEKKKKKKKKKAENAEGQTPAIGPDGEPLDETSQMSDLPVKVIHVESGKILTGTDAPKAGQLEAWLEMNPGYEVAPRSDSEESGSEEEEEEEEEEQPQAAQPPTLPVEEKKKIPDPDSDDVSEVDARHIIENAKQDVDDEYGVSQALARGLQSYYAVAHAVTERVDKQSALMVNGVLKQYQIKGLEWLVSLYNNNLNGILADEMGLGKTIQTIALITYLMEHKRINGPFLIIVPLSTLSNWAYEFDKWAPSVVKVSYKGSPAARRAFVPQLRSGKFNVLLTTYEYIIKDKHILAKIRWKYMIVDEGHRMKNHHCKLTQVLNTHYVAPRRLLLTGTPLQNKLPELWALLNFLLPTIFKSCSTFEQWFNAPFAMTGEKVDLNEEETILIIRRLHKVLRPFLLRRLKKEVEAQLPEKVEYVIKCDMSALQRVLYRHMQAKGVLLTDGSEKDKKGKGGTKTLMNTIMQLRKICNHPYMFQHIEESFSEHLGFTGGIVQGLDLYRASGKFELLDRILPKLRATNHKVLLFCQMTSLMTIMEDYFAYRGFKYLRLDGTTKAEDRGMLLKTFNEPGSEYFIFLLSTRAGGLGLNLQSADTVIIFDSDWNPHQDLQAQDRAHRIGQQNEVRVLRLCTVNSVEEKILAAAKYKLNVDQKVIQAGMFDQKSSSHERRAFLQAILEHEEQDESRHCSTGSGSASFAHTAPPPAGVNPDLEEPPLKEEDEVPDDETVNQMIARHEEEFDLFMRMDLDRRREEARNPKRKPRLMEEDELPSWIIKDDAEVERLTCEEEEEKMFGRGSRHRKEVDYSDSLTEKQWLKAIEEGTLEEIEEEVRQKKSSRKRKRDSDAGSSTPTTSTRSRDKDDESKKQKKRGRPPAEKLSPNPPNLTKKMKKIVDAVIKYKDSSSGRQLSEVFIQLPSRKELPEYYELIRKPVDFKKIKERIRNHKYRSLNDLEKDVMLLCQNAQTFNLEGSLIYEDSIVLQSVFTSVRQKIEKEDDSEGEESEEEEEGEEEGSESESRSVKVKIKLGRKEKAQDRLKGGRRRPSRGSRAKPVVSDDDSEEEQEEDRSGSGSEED

On to `Cc1ncsc1-c1ccc([C@H](C)NC(=O)[C@@H]2C[C@@H](O)CN2C(=O)[C@@H](c2cc(N3CCOC4(CCN(c5ccc6nnc(-c7ccccc7O)cc6c5)CC4)C3)no2)C(C)C)cc1` [Compound 147, (2S,4R)-4-hydroxy-1-((R)-2-(3-(9-(3-(2-hydroxyphenyl)cinnolin-6-yl)-1-oxa-4,9-diazaspiro[5.5]undecan-4-yl)isoxazol-5-yl)-3-methylbutanoyl)-N-((S)-1-(4-(4-methylthiazol-5-yl)phenyl)ethyl)pyrrolidine-2-carboxamide], for which, in test [1], the DC50 was below 10 nM and the “BRM HiBit Degradation Maximum (%)” value is recorded as “A (“A” indicates maximum degradation ≥75%)”. Further, in test [2], the DC50 is above 10 nM and the Dmax is above 75%.
For `Cc1ncsc1-c1ccc([C@H](C)NC(=O)[C@@H]2C[C@@H](O)CN2C(=O)[C@@H](c2cc(N3CCOC4(CCN(c5ccc6cc(-c7ccccc7O)nnc6c5)CC4)C3)no2)C(C)C)cc1` [Compound 148, (2S,4R)-4-hydroxy-1-((R)-2-(3-(9-(3-(2-hydroxyphenyl)cinnolin-7-yl)-1-oxa-4,9-diazaspiro [5.5]undecan-4-yl)isoxazol-5-yl)-3-methylbutanoyl)-N-((S)-1-(4-(4-methylthiazol-5-yl)phenyl)ethyl)pyrrolidine-2-carboxamide], in that order: below 10 nM, “A (“A” indicates maximum degradation ≥75%)”, below 10 nM and above 75%.
Regarding `Cc1cc2nnc(-c3ccccc3O)cc2cc1-c1cc([C@H](C(=O)N2C[C@H](O)C[C@H]2C(=O)N[C@@H](C)c2ccc(-c3scnc3C)cc2)C(C)C)on1` [Compound 149, (2S,4R)-4-hydroxy-1-((R)-2-(3-(3-(2-hydroxyphenyl)-7-methylcinnolin-6-yl)isoxazol-5-yl)-3-methylbutanoyl)-N-((S)-1-(4-(4-methylthiazol-5-yl)phenyl)ethyl)pyrrolidine-2-carboxamide], in test [1], the DC50 was below 10 nM and the “BRM HiBit Degradation Maximum (%)” value is “A (“A” indicates maximum degradation ≥75%)”. Besides, in test [2], the DC50 is above 10 nM and the Dmax is above 50%.
For `Cc1ncsc1-c1ccc([C@H](C)NC(=O)[C@@H]2C[C@@H](O)CN2C(=O)[C@H](C(C)C)n2cc(-c3ccc4nnc(-c5cccc(F)c5O)cc4c3)nn2)cc1` [Compound 150, (2S,4R)-1-((S)-2-(4-(3-(3-fluoro-2-hydroxyphenyl)cinnolin-6-yl)-1H-1,2,3-triazol-1-yl)-3-methylbutanoyl)-4-hydroxy-N-((S)-1-(4-(4-methylthiazol-5-yl)phenyl)ethyl)pyrrolidine-2-carboxamide] the same measures were below 10 nM, “A (“A” indicates maximum degradation ≥75%)”, below 10 nM and above 75%.
For the compound `Cc1ncsc1-c1ccc([C@H](C)NC(=O)[C@@H]2C[C@@H](O)CN2C(=O)[C@@H](c2cc(N3CCN4CCN(c5ccc6nnc(-c7ccccc7O)cc6c5)CC4C3)no2)C(C)C)cc1` (stereo partly drawn) [Compound 151, (2S,4R)-4-hydroxy-1-((2R)-2-(3-(8-(3-(2-hydroxyphenyl)cinnolin-6-yl)octahydro-2H-pyrazino[1,2-a]pyrazin-2-yl)isoxazol-5-yl)-3-methylbutanoyl)-N-((S)-1-(4-(4-methylthiazol-5-yl)phenyl)ethyl)pyrrolidine-2-carboxamide], in test [1], the DC50 was below 10 nM and the “BRM HiBit Degradation Maximum (%)” value is listed as “A (“A” indicates maximum degradation ≥75%)”. For the same compound, in test [2], the Dmax is below 50%.
With `Cc1ncsc1-c1ccc([C@H](C)NC(=O)[C@@H]2C[C@@H](O)CN2C(=O)[C@@H](c2cc(N3CC4(C3)CN(c3cc5cc(-c6ccccc6O)nnc5cc3C3CC3)C4)no2)C(C)C)cc1` [Compound 152, (2S,4R)-1-((R)-2-(3-(6-(7-cyclopropyl-3-(2-hydroxyphenyl)cinnolin-6-yl)-2,6-diazaspiro[3.3]heptan-2-yl)isoxazol-5-yl)-3-methylbutanoyl)-4-hydroxy-N-((S)-1-(4-(4-methylthiazol-5-yl)phenyl)ethyl)pyrrolidine-2-carboxamide], in test [1], the DC50 is below 10 nM and the “BRM HiBit Degradation Maximum (%)” value is reported as “A (“A” indicates maximum degradation ≥75%)”. Further, in test [2], the DC50 was below 10 nM and the Dmax is above 75%.
On to `Cc1ncsc1-c1ccc([C@H](C)NC(=O)[C@@H]2C[C@@H](O)CN2C(=O)[C@@H](c2cc(N3CCC4(CC3)CN(c3ccc5cc(-c6ccccc6O)nnc5c3)CCN4C)no2)C(C)C)cc1` [Compound 153, (2S,4R)-4-hydroxy-1-((R)-2-(3-(4-(3-(2-hydroxyphenyl)cinnolin-7-yl)-1-methyl-1,4,9-triazaspiro[5.5]undecan-9-yl)isoxazol-5-yl)-3-methylbutanoyl)-N-((S)-1-(4-(4-methylthiazol-5-yl)phenyl)ethyl)pyrrolidine-2-carboxamide], for which, in test [1], the DC50 was below 10 nM and the “BRM HiBit Degradation Maximum (%)” value is “A (“A” indicates maximum degradation ≥75%)”. For the same compound, in test [2], the Dmax is below 50%.
For the compound `Cc1ncsc1-c1ccc([C@H](C)NC(=O)[C@@H]2C[C@@H](O)CN2C(=O)[C@@H](c2cc(N3CCCC4(CN(c5ccc6cc(-c7ccccc7O)nnc6c5)C4)C3)no2)C(C)C)cc1` [Compound 154, (2S,4R)-4-hydroxy-1-((R)-2-(3-(2-(3-(2-hydroxyphenyl)cinnolin-7-yl)-2,6-diazaspiro [3.5]nonan-6-yl)isoxazol-5-yl)-3-methylbutanoyl)-N-((S)-1-(4-(4-methylthiazol-5-yl)phenyl)ethyl)pyrrolidine-2-carboxamide], in test [1], the DC50 was below 10 nM and the “BRM HiBit Degradation Maximum (%)” value is recorded as “A (“A” indicates maximum degradation ≥75%)”. In test [2], the DC50 is below 10 nM and the Dmax is above 75%.
In the case of `Cc1ncsc1-c1ccc([C@H](C)NC(=O)[C@@H]2C[C@@H](O)CN2C(=O)[C@@H](c2cc(N3CCN4CCN(c5ccc6cc(-c7ccccc7O)nnc6c5)CC4C3)no2)C(C)C)cc1` (stereo partly drawn) [Compound 155, (2S,4R)-4-hydroxy-1-((2R)-2-(3-(8-(3-(2-hydroxyphenyl)cinnolin-7-yl)octahydro-2H-pyrazino[1,2-a]pyrazin-2-yl)isoxazol-5-yl)-3-methylbutanoyl)-N-((S)-1-(4-(4-methylthiazol-5-yl)phenyl)ethyl)pyrrolidine-2-carboxamide], in test [1], the DC50 is below 10 nM and the “BRM HiBit Degradation Maximum (%)” value is given as “A (“A” indicates maximum degradation ≥75%)”. Also, in test [2], the DC50 is below 10 nM and the Dmax was above 75%.
As to `CNC(=O)[C@@H]1C[C@@H](O)CN1C(=O)[C@@H](c1cc(N2CC3(CN(c4ccc5cc(-c6ccccc6O)nnc5c4)C3)C2)no1)C(C)C` [Compound 156, (2S,4R)-4-hydroxy-1-((R)-2-(3-(6-(3-(2-hydroxyphenyl)cinnolin-7-yl)-2,6-diazaspiro[3.3]heptan-2-yl)isoxazol-5-yl)-3-methylbutanoyl)-N-methylpyrrolidine-2-carboxamide], in test [1], the DC50 was below 10 nM and the “BRM HiBit Degradation Maximum (%)” value is given as “A (“A” indicates maximum degradation ≥75%)”. In addition, the Dmax in test [2] is below 50%.
